# Key:
# PKAI isozymes = conditions: cited from earlier work
# PKAII isozymes = conditions: cited from earlier work
# [1] = system: peripheral blood CD3+ T cells; test: TCR/CD3 (anti-CD3) stimulated T cell proliferation, [3H]-thymidine incorporation; assay type: cell-based, human; conditions: T cells from normal blood donors, FIG. 3A
# Description: (§1) Human peripheral blood CD3+ T cells were purified by negative selection from 50 ml of heparin-treated blood from normal healthy donors (Ullevaal University Hospital Blood Center, Oslo. Norway) or patients. Briefly, peripheral blood mononuclear cells were isolated by density gradient (Lymphoprep, NycoMed, Oslo, Norway) centrifugation followed by negative selection using monodisperse magnetic beads directly coated with antibodies to CD14 and CD19 and rat anti-mouse IgG beads coated with antibodies to CD56 and a magnet. Magnetic beads were all from Dynal (Oslo, Norway, cat. no. 111.12, 111.04, and 110.11. respectively) whereas anti-CD56 antibody was from Pharmingen (San Diego, Calif., cat. no. 31660.d). All steps were performed at 4° C.
# as §1, with “Peripheral blood” for “Human peripheral blood”, “Center, Oslo,” for “Center, Oslo.”, “selection using,” for “selection using”, “and 110.11,” for “and 110.11.”, “Calif., eat.” for “Calif., cat.”
# Proliferation assays were performed by incubation of 0.75×10^6 CM+ T cells/ml in a 100 μl volume in that-bottom 96-well microtiter plates. Activation was achieved by subsequent addition of monodisperse magnetic beads coated with sheep anti-mouse IgG (Dynal. cat. no. 110.02) at a cell:bead ratio of 1:1 followed by addition of antiCD3 (clone SpvT3b) at a final dilution of 1:125,000 for the experiments shown. The optimal concentration of antibody was titrated carefully in the initial setup and parallel experiments at several different dilutions of antibody was always performed. Proliferation was analyzed by incubating, cells for 72 hours during which [^3H]thymidine was included for the last 16 hours. Cells were washed and harvested onto filters using a Scatron harvester (Suffolk, UK) and subsequently analyzed by β-scintillation counting. cAMP analogs, when used, were added 30 min prior to activation by addition of […] antibodies. 8-CPT-cAMP was from Sigorna (St. Louis, Mo.) and Sp- and Rp-8-Br-cAMPS were from BioLog Life Science Company (Bremen, Germany) and were all dissolved to concentrations of 4 to 10 mM in PBS and concentrations calculated using the extinction coefficients given by the manufacturer.
# PBMC = conditions: cited from earlier work
# [2] = system: peripheral blood CD3+ T cells; test: TCR/CD3 stimulated proliferation of liposome-transfected CD3+ T cells treated with 8-CPT-cAMP; assay type: cell-based, human; conditions: for Effect of peptide on cAMP dependent inhibition of T cell proliferation: increasing concentrations (25 to 100 μM), 8-CPT-cAMP 6.25 μM, FIG. 9
# Description: FIG. 8. Reversal of cAMP-mediated inhibition of TUR/CD3 stimulated T cell proliferation by the use of ribozyme to the RIα subunit of protein kinase A type I. TCR/CD3 stimulated proliferation of peripheral blood CD3+ T cells from normal healthy blood donor following treatment with liposomes alone (mock) or with liposomes and RIα ribozyme (RIα rbz, 10 μM) in the absence (solid bars) and presence (open bars) of 8-CPT-cAMP (12,5 μM).
# FIG. 9. Reversal of cAMP-mediated inhibition of TCR/CD3 stimulated T cell proliferation by the use of competitor peptide to compete the TCR/CD3 associated anchoring of RIα subunit of protein kinase A type I in T cells. TCR/CD3 stimulated proliferation of peripheral blood CD3+ T cells from normal healthy blood donor following treatment with liposomes alone (mock) or with increasing concentrations (25 to 100 μM) of a competitor peptide (Ht-31) that competes anchoring, to PKA type II or a control peptide (Ht31-P).
# FIG. 10. TCR/CD3 stimulated proliferation of peripheral blood CD3+ T cells in the presence of increasing, concentrations of 8-CPT-cAMP. Normalized levels of proliferation of T cells mock transfected with liposomes only (solid circles, continuous line) or incubated with liposomes and Ht31 peptide (35 μM) to compete anchoring of protein kinase A type I (open circles, dotted line) was assessed as [^3H]-thymidine incorporation after 48 h during which [^3H]-thymidine was added for the last 18 h. Note: right shift of the IC50 (arrow) from 1,8 to 4,8 μM in the presence of […].
# When transfected as synthetic RNA ribozyme or as a synthetic RNA ribozyme stabilized by incorporation of 2-deoxycytosine and 2-deoxy-uracil analogs into peripheral blood CD3+ T cells, the ribozyme reduced levels of RIα protein to approximately 20% of control levels by removing the RIα mRNA. By this strategy, the majority of protein kinase A type 1 was removed from the T cells. We then assessed the immune responsiveness of CD3+ T cells transfected with ribozyme compared to control (mock) transfected T cells measured as T cell proliferation after activation of T cells by stimulation of the T cell receptor/CD3 complex (TCR/CD3). In order to simulate a T cell dysfunction as that of HIV infection, with elevated levels of cAMP and increased activation of protein kinase A type 1, we treated normal T cells with low dose (12.5 around IC50) of the cAMP analog 8-(4-chlorophenyl)-thio-cAMPS (8-CPT-cAMP). […] For in vivo use pretreatment of ribozymes to allow cellular uptake or introduction into cells as minigenes will be necessary.
# We incubated blood CD3+ T cells with increasing concentrations of Ht31 (SEQ. ID. NO 2) peptide. In order to facilitate uptake, cells were treated with liposomes in the presence or absence of-peptide. The optimal concentrations of DOTAP liposomes and anti-CD3 antibody were titrated carefully in order to maintain the membrane stability and normal TCR/CD3-dependent activation of the T cells. Cells were incubated for 20 hours with DOTAP/peptide and incubations continued in the absence (solid bars) or presence of 8-CPT-cAMP (6.25 μM, hatched bars) and activated to proliferation by stimulation of TCR/CD3 T cell immune responsiveness was assessed as [3H]thymidine incorporation.
# Next, the effect of the competitor peptide (Ht-31, 35 μM) on T cell proliferation was examined in the presence of increasing concentrations of 8-CPT-cAMP and compared to mock transfected cells treated with the same concentrations of 8-CPT-cAMP (FIG. 10). As shown previously for normal peripheral blood T cells. […] Compared to the left-shifted curves observed with T cells from HIV-infected patients or patients with CIV due to elevated levels of endogenous cAMP activating PKA type 1, the right-shift observed here would be expected to normalize the situation in patients.
# [3] = target: RIα subunit of cAMP-dependent protein kinase A type I (human, UniProt P10644 1-381); test: cell-based or functional assay
# Sequence of RIα subunit of cAMP-dependent protein kinase A type I (P10644 whole entry): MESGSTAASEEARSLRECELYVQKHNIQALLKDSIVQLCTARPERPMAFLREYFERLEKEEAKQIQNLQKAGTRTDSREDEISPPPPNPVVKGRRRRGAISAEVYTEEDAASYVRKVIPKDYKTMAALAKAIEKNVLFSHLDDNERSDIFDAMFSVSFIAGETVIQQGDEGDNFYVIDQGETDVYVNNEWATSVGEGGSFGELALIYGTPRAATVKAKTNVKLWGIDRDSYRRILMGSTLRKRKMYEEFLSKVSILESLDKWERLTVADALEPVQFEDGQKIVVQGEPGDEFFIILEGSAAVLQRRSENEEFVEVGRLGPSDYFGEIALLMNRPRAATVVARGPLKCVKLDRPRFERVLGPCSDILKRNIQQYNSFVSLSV
molecule,measurement,setting,value
"Nc1ncnc2c1ncn2[C@@H]1O[C@@H]2CO[P@@](O)(=S)O[C@H]2[C@H]1O [Rp-cAMPS, Rp-cAMP-phosphorothioate]",Mode of action on PKAI isozymes,PKAI isozymes,full antagonist
same,Mode of action on PKAII isozymes,PKAII isozymes,partial agonist
"Nc1ncnc2c1nc(Br)n2[C@@H]1O[C@@H]2COP(O)(=S)O[C@@H]2C1O (some centres unmarked) [Sp-8-Br-cAMPS, Sp-8-Bromo-cAMP-phosphorothioate, reference compound]",Effect of cAMP agonist on TCR/CD3-stimulated proliferation,[1],inhibited
"C[C@H]1O[C@@H](n2cnc3c(N)ncnc32)C[C@@H]1O [ddAdo, 2′,5′ dideoxyadenosine]",Effect on cell proliferation,PBMC; PBMC,increased the cell proliferation
same,Effect on cellular cAMP levels,PBMC; PBMC,reduced cellular cAMP levels
same,Effective concentrations,PBMC; higher concentrations suppressive or without further effect,~6 ng/mL
H2N-Asp-Leu-Ile-Glu-Glu-Ala-Ala-Ser-Arg-Ile-Val-Asp-Ala-Val-Ile-Glu-Gln-Val-Lys-Ala-Ala-Gly-Ala-Tyr-COOH (H-DLIEEAASRIVDAVIEQVKAAGAY-OH) [Ht31],Effect of peptide on 8-CPT-cAMP inhibition curve,"[2]; 35 μM peptide, FIG. 10",right-shifted inhibition curve
same,Effect of peptide on cAMP dependent inhibition of T cell proliferation,[2],reduced sensitivity to cAMP
same,Effect of peptide on cAMP dependent inhibition of T cell proliferation,[2]; listed as Ht-31,reversed the cAMP dependent inhibition
H-DLIEEAASRIVDAVIEQVKAAGAY-OH [Ht31 competitor peptide (amino acids 493-515 of the A-kinase anchoring protein (AKAP) Ht31)],IC50 of 8-CPT-cAMP for inhibition of TCR/CD3 stimulated T cell proliferation with Ht-31 (35 µM); mock transfected cells had an IC50 around 1.8 µM,[3],4.8 µM
same,"TCR/CD3 stimulated proliferation of CD3+ T cells ([3H]thymidine incorporation) in the presence of 8-CPT-cAMP (6.25 µM), peptide delivered with DOTAP liposomes",[3],3 fold

# From patent publication US7192932B1, “Use of immunomodulating agents” (Lauras AS, priority 1997, dated 2007)
